# Tests used:
# Assay type in all cases: biochemical
# TYK2 = target: T1, TYK2 (Homo sapiens, UniProt P29597); test: TYK2 inhibition (Table 4)
# T1 construct: made in house; host or cells: SF9 insect cells (baculovirus)
# T1 sequence (P29597 873-1187): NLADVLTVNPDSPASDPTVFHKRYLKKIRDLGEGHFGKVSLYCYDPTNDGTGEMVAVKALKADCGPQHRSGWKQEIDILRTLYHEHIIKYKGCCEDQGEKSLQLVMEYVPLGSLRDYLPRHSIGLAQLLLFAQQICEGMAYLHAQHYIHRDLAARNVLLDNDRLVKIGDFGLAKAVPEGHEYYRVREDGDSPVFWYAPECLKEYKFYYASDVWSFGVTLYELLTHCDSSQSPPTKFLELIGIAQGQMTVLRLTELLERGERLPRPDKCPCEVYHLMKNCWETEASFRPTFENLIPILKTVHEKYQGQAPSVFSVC
# JAK1 = target: T2, JAK1 (Homo sapiens, UniProt P23458); test: JAK1 inhibition (Table 4); conditions: read-out: JAK1 Ki
# T2 construct: made in house; host or cells: SF9 insect cells (baculovirus)
# JAK2 = target: T3, JAK2 (Homo sapiens, UniProt O60674); test: JAK2 inhibition (Table 4); conditions: read-out: JAK2 Ki
# T3 construct: made in house; host or cells: SF9 insect cells (baculovirus)
# JAK3 = target: T4, JAK3 (Homo sapiens, UniProt P52333); test: JAK3 inhibition (Table 4); conditions: read-out: JAK3 Ki
# T4 construct: made in house; host or cells: SF9 insect cells (baculovirus)
# T4 sequence (P52333 783-1124): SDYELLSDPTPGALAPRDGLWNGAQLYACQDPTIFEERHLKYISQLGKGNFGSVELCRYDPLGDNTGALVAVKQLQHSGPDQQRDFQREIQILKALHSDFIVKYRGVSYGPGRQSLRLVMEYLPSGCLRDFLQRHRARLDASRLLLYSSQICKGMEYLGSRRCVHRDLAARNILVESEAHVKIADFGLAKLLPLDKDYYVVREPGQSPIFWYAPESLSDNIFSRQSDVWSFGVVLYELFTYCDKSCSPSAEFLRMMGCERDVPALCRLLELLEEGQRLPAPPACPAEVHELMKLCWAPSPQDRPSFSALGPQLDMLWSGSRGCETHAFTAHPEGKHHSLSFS
# T3 sequence (O60674 812-1132): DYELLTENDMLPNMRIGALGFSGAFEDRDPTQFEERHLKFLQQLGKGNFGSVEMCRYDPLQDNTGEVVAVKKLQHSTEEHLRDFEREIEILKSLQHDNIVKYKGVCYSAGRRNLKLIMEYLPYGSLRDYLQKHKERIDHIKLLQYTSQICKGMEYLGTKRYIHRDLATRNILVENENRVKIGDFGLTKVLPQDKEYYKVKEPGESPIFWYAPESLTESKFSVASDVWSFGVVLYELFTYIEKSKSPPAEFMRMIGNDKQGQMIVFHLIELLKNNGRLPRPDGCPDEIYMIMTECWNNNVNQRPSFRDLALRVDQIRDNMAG
# T2 sequence (P23458 852-1154): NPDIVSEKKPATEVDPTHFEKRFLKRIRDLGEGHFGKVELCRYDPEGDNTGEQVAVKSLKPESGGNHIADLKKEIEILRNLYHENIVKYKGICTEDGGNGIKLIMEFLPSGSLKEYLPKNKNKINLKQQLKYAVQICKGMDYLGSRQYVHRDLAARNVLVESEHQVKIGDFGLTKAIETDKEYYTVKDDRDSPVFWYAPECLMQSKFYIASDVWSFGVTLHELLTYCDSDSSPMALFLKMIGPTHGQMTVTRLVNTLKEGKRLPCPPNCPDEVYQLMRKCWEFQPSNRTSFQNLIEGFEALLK
SMILES,Ki (TYK2) [µM],Ki (JAK1) [µM],Ki (JAK2) [µM],Ki (JAK3) [µM]
"CC(C)CC(=O)NCCc1nc2cnc3[nH]ccc3c2n1C1CCN(CCC#N)CC1 [Example 376, N-(2-{1-[1-(2-Cyano-ethyl)-piperidin-4-yl]-1,6-dihydro-1,3,5,6-tetraaza-as-indacen-2-yl}-ethyl)-3-methyl-butyramide]",0.188,0.00415,0.0386,0.0619
"N#CCCN1CCC(n2c(CCNC(=O)C3CC3)nc3cnc4[nH]ccc4c32)CC1 [Example 377, Cyclopropanecarboxylic acid (2-{1-[1-(2-cyano-ethyl)-piperidin-4-yl]-1,6-dihydro-1,3,5,6-tetraaza-as-indacen-2-yl}-ethyl)-amide]",0.185,0.00364,0.0295,0.0503
"CC(C)C(=O)NCCc1nc2cnc3[nH]ccc3c2n1C1CCN(CCC#N)CC1 [Example 378, N-(2-{1-[1-(2-Cyano-ethyl)-piperidin-4-yl]-1,6-dihydro-1,3,5,6-tetraaza-as-indacen-2-yl}-ethyl)-isobutyramide]",0.226,0.00503,0.0484,0.0613
"CC(=O)NCCc1nc2cnc3[nH]ccc3c2n1C1CCN(CCC#N)CC1 [Example 379, N-(2-{1-[1-(2-Cyano-ethyl)-piperidin-4-yl]-1,6-dihydro-1,3,5,6-tetraaza-as-indacen-2-yl}-ethyl)-acetamide]",0.117,0.00354,0.018,0.0262
"N#CCCN1CCC(n2c(CCNC(=O)c3ccccc3)nc3cnc4[nH]ccc4c32)CC1 [Example 380, N-(2-{1-[1-(2-Cyano-ethyl)-piperidin-4-yl]-1,6-dihydro-1,3,5,6-tetraaza-as-indacen-2-yl}-ethyl)-benzamide]",0.142,0.00398,0.036,0.0626
"CCCS(=O)(=O)N1CCC(n2c(Cc3conc3C)nc3cnc4[nH]ccc4c32)CC1 [Example 381, 2-(3-Methyl-isoxazol-4-ylmethyl)-1-[1-(propane-1-sulfonyl)-piperidin-4-yl]-1,6-dihydro-1,3,5,6-tetraaza-as-indacene]",1.99,0.0871,1.27,1.84
"NC(=O)Cc1nc2cnc3[nH]ccc3c2n1C1CCN(S(=O)(=O)C2CC2)CC1 [Example 382, 2-[1-(1-Cyclopropanesulfonyl-piperidin-4-yl)-1,6-dihydro-1,3,5,6-tetraaza-as-indacen-2-yl]-acetamide]",0.733,0.134,0.589,0.538
"N#CCCN1CCC(n2c(CC3CC3)nc3cnc4[nH]ccc4c32)CC1 [Example 383, 3-[4-(2-Cyclopropylmethyl-6H-1,3,5,6-tetraaza-as-indacen-1-yl)-piperidin-1-yl]-propionitrile]",0.217,0.00988,0.0356,0.0214
"N#CCCN1CCC(n2c(C3CCOCC3)nc3cnc4[nH]ccc4c32)CC1 [Example 385, 3-{4-[2-(Tetrahydro-pyran-4-yl)-6H-1,3,5,6-tetraaza-as-indacen-1-yl]-piperidin-1-yl}-propionitrile]",1.29,0.0513,0.0685,0.0155
"N#CCCN1CCC(n2c(CCn3cncn3)nc3cnc4[nH]ccc4c32)CC1 [Example 386, 3-{4-[2-(2-[1,2,4]Triazol-1-yl-ethyl)-6H-1,3,5,6-tetraaza-as-indacen-1-yl]-piperidin-1-yl}-propionitrile]",0.319,0.0178,0.0643,0.0792
"CC(=O)N(C)CCc1nc2cnc3[nH]ccc3c2n1C1CCN(CCC#N)CC1 [Example 387, N-(2-{1-[1-(2-Cyano-ethyl)-piperidin-4-yl]-1,6-dihydro-1,3,5,6-tetraaza-as-indacen-2-yl}-ethyl)-N-methyl-acetamide]",0.35,0.0154,0.0541,0.0703
"CC(C)C(=O)N1CC(c2nc3cnc4[nH]ccc4c3n2C2CCN(CCC#N)CC2)C1 [Example 389, 3-{4-[2-(1-Isobutyryl-azetidin-3-yl)-6H-1,3,5,6-tetraaza-as-indacen-1-yl]-piperidin-1-yl}-propionitrile]",0.181,0.0111,0.0343,0.0483
"Cc1nccn1Cc1nc2cnc3[nH]ccc3c2n1C1CCN(CCC#N)CC1 [Example 402, 3-{4-[2-(2-Methyl-imidazol-1-ylmethyl)-6H-1,3,5,6-tetraaza-as-indacen-1-yl]-piperidin-1-yl}-propionitrile]",0.0357,0.0054,0.0088,0.0668
"N#CCCN1CCC(n2c(Cc3cccnc3)nc3cnc4[nH]ccc4c32)CC1 [Example 403, 3-[4-(2-Pyridin-3-ylmethyl-6H-1,3,5,6-tetraaza-as-indacen-1-yl)-piperidin-1-yl]-propionitrile]",0.102,0.0103,0.0192,0.0242
"N#CCCN1CCC(n2c(Cc3cccc(C#N)c3)nc3cnc4[nH]ccc4c32)CC1 [Example 405, 3-{1-[1-(2-Cyano-ethyl)-piperidin-4-yl]-1,6-dihydro-1,3,5,6-tetraaza-as-indacen-2-ylmethyl}-benzonitrile]",0.445,0.0306,0.252,0.524
"N#CCCN1CCC(n2c(Cc3ccc(C(N)=O)cc3)nc3cnc4[nH]ccc4c32)CC1 [Example 406, 4-{1-[1-(2-Cyano-ethyl)-piperidin-4-yl]-1,6-dihydro-1,3,5,6-tetraaza-as-indacen-2-ylmethyl}-benzamide]",0.648,0.0678,0.204,0.614
"CC(C)COCc1nc2cnc3[nH]ccc3c2n1C1CCN(CCC#N)CC1 [Example 407, 3-[4-(2-Isobutoxymethyl-6H-1,3,5,6-tetraaza-as-indacen-1-yl)-piperidin-1-yl]-propionitrile]",0.607,0.0812,0.122,0.17
"N#CCCN1CCC(n2c(CCC3CC3)nc3cnc4[nH]ccc4c32)CC1 [Example 408, 3-{4-[2-(2-Cyclopropyl-ethyl)-6H-1,3,5,6-tetraaza-as-indacen-1-yl]-piperidin-1-yl}-propionitrile]",0.255,0.0158,0.0435,0.0524
"Cc1ccnn1CCc1nc2cnc3[nH]ccc3c2n1C1CCN(CCC#N)CC1 [Example 410, 3-(4-{2-[2-(5-Methyl-pyrazol-1-yl)-ethyl]-6H-1,3,5,6-tetraaza-as-indacen-1-yl}-piperidin-1-yl)-propionitrile]",0.315,0.0249,0.0816,0.244
"Cn1cc(CCc2nc3cnc4[nH]ccc4c3n2C2CCN(CCC#N)CC2)cn1 [Example 412, 3-(4-{2-[2-(1-Methyl-1H-pyrazol-4-yl)-ethyl]-6H-1,3,5,6-tetraaza-as-indacen-1-yl}-piperidin-1-yl)-propionitrile]",0.545,0.0216,0.0787,0.125
"Cc1cnn(CCc2nc3cnc4[nH]ccc4c3n2C2CCN(CCC#N)CC2)c1 [Example 413, 3-(4-{2-[2-(4-Methyl-pyrazol-1-yl)-ethyl]-6H-1,3,5,6-tetraaza-as-indacen-1-yl}-piperidin-1-yl)-propionitrile]",0.181,0.0211,0.0598,0.224
"N#CCCN1CCC(n2c(CCn3cccn3)nc3cnc4[nH]ccc4c32)CC1 [Example 414, 3-{4-[2-(2-Pyrazol-1-yl-ethyl)-6H-1,3,5,6-tetraaza-as-indacen-1-yl]-piperidin-1-yl}-propionitrile]",0.137,0.0176,0.0557,0.155
"Cc1nc2cnc3[nH]ccc3c2n1[C@H]1CC[C@@H](C(=O)O)CC1 [Example 420, 4-(2-Methyl-6H-1,3,5,6-tetraaza-as-indacen-1-yl)-cyclohexanecarboxylic acid]",0.0286,0.0662,0.0806,0.0391
"Cc1nc2cnc3[nH]ccc3c2n1[C@H](C)CO [Example 421, (R)-2-(2-Methyl-6H-1,3,5,6-tetraaza-as-indacen-1-yl)-propan-1-ol]",2.34,0.251,0.747,0.433
"Cc1nc2cnc3[nH]ccc3c2n1[C@@H](C)CO [Example 422, (S)-2-(2-Methyl-6H-1,3,5,6-tetraaza-as-indacen-1-yl)-propan-1-ol]",1.23,0.141,0.378,0.31
"CCCC1(n2c(C)nc3cnc4[nH]ccc4c32)CC1 [Example 423, 2-Methyl-1-(1-propyl-cyclopropyl)-1,6-dihydro-1,3,5,6-tetraaza-as-indacene]",0.112,0.00988,0.0141,0.00967
"COC[C@H](C)n1c(C)nc2cnc3[nH]ccc3c21 [Example 424, 1-((S)-2-Methoxy-1-methyl-ethyl)-2-methyl-1,6-dihydro-1,3,5,6-tetraaza-as-indacene]",0.317,0.0463,0.0633,0.0329
"Cc1nc2cnc3[nH]ccc3c2n1C1CC1 [Example 425, 1-Cyclopropyl-2-methyl-1,6-dihydro-1,3,5,6-tetraaza-as-indacene]",0.399,0.0834,0.0978,0.177
